Several values for one entry are separate records, joined by “and”; a condition that tells them apart may be missing. Equal entries are not always repeated. Where two headings read alike, the source gives them in different places.
Assay: Single escalating dose IV infusion pharmacokinetics in healthy volunteers (noncompartmental)
Format: in vivo, human
Conditions: for HL_Lambda_z / highest (peak) concentration: individual subjects; for HL_Lambda_z: WinNonlin noncompartmental analysis, in h
Description: Forty-five subjects have enrolled in the study.
Analysis of plasma concentration versus time data for calculation of standard pharmacokinetic (PK) parameters following intravenous infusion administration was conducted using Phoenix WinNonlin version 6.3 using a nominal infusion duration and scheduled blood sampling times. Random subject numbers were assigned by the bioanalytical laboratory to retain the blind.
(§1) Analysis of plasma concentration versus time data for calculation of standard pharmacokinetic (PK) parameters following intravenous infusion administration was conducted using Phoenix WinNonlin version 6.3 using a nominal infusion duration and scheduled blood sampling times.
as §1

[1] = Cohort 2, 12 mg/m^2 IV, r6-8=Subjects 1-3,r10=Mean,r12=Min,r13=Median,r14=Max,r16=Geometric Mean, geometric mean
[2] = Cohort 2, 12 mg/m^2 IV, r6-8=Subjects 1-3,r10=Mean,r12=Min,r13=Median,r14=Max,r16=Geometric Mean, mean
[3] = Cohort 2, 12 mg/m^2 IV, r6-8=Subjects 1-3,r10=Mean,r12=Min,r13=Median,r14=Max,r16=Geometric Mean, median
[4] = Cohort 3, 24 mg/m^2 IV, r6-8=Subjects 1-3,r10=Mean,r12=Min,r13=Median,r14=Max,r16=Geometric Mean, geometric mean
[5] = Cohort 3, 24 mg/m^2 IV, r6-8=Subjects 1-3,r10=Mean,r12=Min,r13=Median,r14=Max,r16=Geometric Mean, maximum
[6] = Cohort 3, 24 mg/m^2 IV, r6-8=Subjects 1-3,r10=Mean,r12=Min,r13=Median,r14=Max,r16=Geometric Mean, mean
[7] = Cohort 3, 24 mg/m^2 IV, r6-8=Subjects 1-3,r10=Mean,r12=Min,r13=Median,r14=Max,r16=Geometric Mean, median
[8] = Cohort 3, 24 mg/m^2 IV, r6-8=Subjects 1-3,r10=Mean,r12=Min,r13=Median,r14=Max,r16=Geometric Mean, minimum
[9] = Cohort 4, 48 mg/m^2 IV, r6-8=Subjects 1-3,r10=Mean,r12=Min,r13=Median,r14=Max,r16=Geometric Mean, geometric mean
[10] = Cohort 4, 48 mg/m^2 IV, r6-8=Subjects 1-3,r10=Mean,r12=Min,r13=Median,r14=Max,r16=Geometric Mean, maximum
[11] = Cohort 4, 48 mg/m^2 IV, r6-8=Subjects 1-3,r10=Mean,r12=Min,r13=Median,r14=Max,r16=Geometric Mean, mean
[12] = Cohort 4, 48 mg/m^2 IV, r6-8=Subjects 1-3,r10=Mean,r12=Min,r13=Median,r14=Max,r16=Geometric Mean, median
[13] = Cohort 4, 48 mg/m^2 IV, r6-8=Subjects 1-3,r10=Mean,r12=Min,r13=Median,r14=Max,r16=Geometric Mean, minimum
[14] = Cohort 5, 96 mg/m^2, 30-minute IV infusion, noncompartmental, subjects 1-6, Mean, Min, Median, Max, Geometric Mean, minimum

In the case of CN1CCN(c2ccc(Nc3ncc4cc5n(c4n3)C3(CCCCC3)CNC5=O)nc2)CC1 [Compound 1, 2′-((5-(4-methylpiperazin-1-yl)pyridin-2-yl)amino)-7′,8′-dihydro-6′H-spiro[cyclohexane-1,9′-pyrazino[1′,2′:1,5]pyrrolo[2,3-d]pyrimidin]-6′-one], the HL_Lambda_z (Cohort 1, 6 mg/m^2) is reported as 6.358 and 3.5207 and 4.7366, the “highest (peak) concentration” value (Cohort 1, 6 mg/m^2 IV) is reported as 42.7 ng/mL and 42.9 ng/mL and 60.5 ng/mL and the “Clearance (CL)” value (Cohort 1, 6 mg/m^2 IV, mean) is reported as 91.4 L/h/m^2. For the same compound, the “volume of distribution at steady state (Vss) averaging” value (from here on “volume of distribution”) (Cohort 1, 6 mg/m^2 IV, mean) was 358 L/m^2, the HL_Lambda_z (Cohort 2, 12 mg/m^2) was 7.5562 and 8.8853 and the “highest (peak) concentration” value (Cohort 2, 12 mg/m^2 IV) was 87.4 ng/mL and 136 ng/mL. For the same compound, the “Clearance (CL)” value (Cohort 2, 12 mg/m^2 IV, mean) was 83.5 L/h/m^2, the “volume of distribution” value (Cohort 2, 12 mg/m^2 IV, mean) was 461 L/m^2 and the AUCinf [1] was 146 ng·h/mL. It also gave a CL [1] of 82.4 L/h/m^2, a Cmax [1] of 119 ng/mL and an MRTinf [1] of 5.51 h. The Tmax [1] was 23.8 min, the Vss [1] was 454 L/m^2 and the λz [1] was 0.0845 h⁻¹. It also gave a CL [2] of 83.5 L/h/m^2, a Vss [2] of 461 L/m^2 and a λz [2] of 0.0847 h⁻¹. For the same compound, the AUCinf [3] was 136 ng·h/mL, the CL [3] was 88.4 L/h/m^2 and the Cmax [3] was 136 ng/mL. For the same compound, the MRTinf [3] was 5.98 h, the Vss [3] was 405 L/m^2 and the λz [3] was 0.0844 h⁻¹. For the same compound, the HL_Lambda_z (Cohort 3, 24 mg/m^2) was 13.1458 and 8.6328 and 7.8478, the “Clearance (CL)” value (Cohort 3, 24 mg/m^2 IV, mean) was 90.7 L/h/m^2 and the “volume of distribution” value (Cohort 3, 24 mg/m^2 IV, mean) was 562 L/m^2. For the same compound, the AUClast [4] was 253 ng·h/mL, the Vss [4] was 550 L/m^2 and the λz [4] was 0.0720 h⁻¹. The AUClast [5] was 337 ng·h/mL, the Vss [5] was 674 L/m^2 and the λz [5] was 0.0883 h⁻¹. It also gave a Vss [6] of 562 L/m^2, a λz [6] of 0.0738 h⁻¹ and an AUClast [7] of 259 ng·h/mL. For the same compound, the Vss [7] was 599 L/m^2, the λz [7] was 0.0803 h⁻¹ and the AUClast [8] was 186 ng·h/mL. For the same compound, the Vss [8] was 412 L/m^2, the λz [8] was 0.0527 h⁻¹ and the HL_Lambda_z (Cohort 4, 48 mg/m^2) was 10.9028 and 7.2383 and 8.5525. The “Clearance (CL)” value (Cohort 4, 48 mg/m^2 IV, mean) was 96.5 L/h/m^2, the “volume of distribution” value (Cohort 4, 48 mg/m^2 IV, mean) was 771 L/m^2 and the Tmax (Cohort 4, 48 mg/m^2 IV, r6-8=Subjects 1-3,r10=Mean,r12=Min,r13=Median,r14=Max,r16=Geometric Mean) was 15 min. The AUCinf [9] was 498 ng·h/mL, the AUClast [9] was 452 ng·h/mL and the CL [9] was 96.4 L/h/m^2. It also gave an MRTinf [9] of 7.83 h, a Tmax [9] of 23.8 min and a Vss [9] of 754 L/m^2. The λz [9] was 0.0790 h⁻¹, the AUCinf [10] was 524 ng·h/mL and the AUClast [10] was 480 ng·h/mL. For the same compound, the CL [10] was 105 L/h/m^2, the Cmax [10] was 228 ng/mL and the MRTinf [10] was 10.7 h. It also gave a Vss [10] of 995 L/m^2, a λz [10] of 0.0958 h⁻¹ and a CL [11] of 96.5 L/h/m^2. It also gave a Vss [11] of 771 L/m^2, a λz [11] of 0.0801 h⁻¹ and an AUCinf [12] of 514 ng·h/mL. The AUClast [12] was 441 ng·h/mL, the CL [12] was 93.3 L/h/m^2 and the Cmax [12] was 227 ng/mL. It also gave an MRTinf [12] of 7.80 h, a Vss [12] of 715 L/m^2 and a λz [12] of 0.0810 h⁻¹. For the same compound, the AUCinf [13] was 459 ng·h/mL, the AUClast [13] was 437 ng·h/mL and the CL [13] was 91.7 L/h/m^2. It also gave an MRTinf [13] of 5.76 h, a Tmax [13] of 15 min and a Vss [13] of 603 L/m^2. For the same compound, the λz [13] was 0.0636 h⁻¹, the AUClast (Cohort 5, 96 mg/m^2, 30-minute IV infusion, noncompartmental, subjects 1-6, Mean, Min, Median, Max, Geometric Mean, mean) was 1240 ng·h/mL and the AUClast [14] was 1040 ng·h/mL. The Tmax [14] was 15 min, the maximum mean concentration (Cohort 5, 96 mg/m^2 IV, at the end of infusion (EOI)) was 874 ng/mL and the “Clearance (CL)” value (Cohort 5, 96 mg/m^2 IV, mean) was 74 L/h/m^2. For the same compound, the “volume of distribution” value (Cohort 5, 96 mg/m^2 IV, mean) was 429 L/m^2, the HL_Lambda_z (Cohort 5, received 96 mg/m^2) was 8.4971 and 10.9427 and 7.5378 and 10.6557 and 7.1128 and 6.9746 and the “Clearance (CL)” value (Cohort 6, […]^2 IV, mean) was 62.1 L/h/m^2. The “volume of distribution” value (Cohort 6, […]^2 IV, mean) was 547 L/m^2, the AUC(0-inf) (both sexes, human, plasma, iv, 6 mg/m2, Cohort 1, 6 mg/m^2 IV, mean, read-out: AUCinf averaged) was 67.7 ng·h/mL and the Cmax (both sexes, human, plasma, iv, 6 mg/m2, Cohort 1, 6 mg/m^2 IV, mean, read-out: Cmax averaged) was 50.9 ng/mL. The Tmax (both sexes, human, plasma, iv, 6 mg/m2, Cohort 1, 6 mg/m^2 IV, mean, read-out: Tmax) was 19.8 min, the half-life (both sexes, human, plasma, iv, 6 mg/m2, Cohort 1, 6 mg/m^2 IV, mean, read-out: average half-life (converted)) was 292 min and the MRT inf (both sexes, human, plasma, iv, 6 mg/m2, Cohort 1, 6 mg/m^2 IV, r6-8=Subjects 1-3,r10=Mean,r12=Min,r13=Median,r14=Max,r16=Geometric Mean) was 4.18 h. The AUC(0-inf) (both sexes, human, plasma, iv, 6 mg/m2, Cohort 1, 6 mg/m^2 IV, r6-8=Subjects 1-3,r10=Mean,r12=Min,r13=Median,r14=Max,r16=Geometric Mean, read-out: AUCinf) was 67.7 ng·h/mL, the Cmax (both sexes, human, plasma, iv, 6 mg/m2, Cohort 1, 6 mg/m^2 IV, r6-8=Subjects 1-3,r10=Mean,r12=Min,r13=Median,r14=Max,r16=Geometric Mean, read-out: Cmax) was 50.9 ng/mL and the Tmax (both sexes, human, plasma, iv, 6 mg/m2, Cohort 1, 6 mg/m^2 IV, r6-8=Subjects 1-3,r10=Mean,r12=Min,r13=Median,r14=Max,r16=Geometric Mean, read-out: Tmax) was 20 min. For the same compound, the half-life (both sexes, human, plasma, iv, 6 mg/m2, Cohort 1, 6 mg/m^2 IV, r6-8=Subjects 1-3,r10=Mean,r12=Min,r13=Median,r14=Max,r16=Geometric Mean, read-out: t½ (converted)) was 292 min.
